For experiment [1], the system named is MM1418-C1 lightly pigmented melanoma cells. Description: melanin content after UVB, melanoma cells. The experiment is classed as cell-based. The settings on record: 10 μM for 24 hours prior to 2 kJ/m2 UVB; measured 24 hours later; relative to untreated UVB cells. Here is the method:
In brief, MM1418-C1 lightly pigmented melanoma cells or human primary melanocytes were grown in 24 well culture plates and treated with 10 μM
RSKAKNPLYRRRRRRRRR (“IK-3”) for 24 hours prior to being exposed to 2 kJ/m2 UVB radiation. Controls (not treated with RSKAKNPLYRRRRRRRRR) labelled “Con” and “UVB”, respectively, were exposed to either 0 or 2 KJ/m2 UVB radiation. Cell groups were returned to the incubator for 24 hours and then the levels of melanin and protein in the cells were measured spectrophotometrically. In each experiment triplicate samples were measured. Data shown in FIG. 19 indicate the average values+SEM (μg melanin/mg cell protein) exposed to 0 or 2 KJ/m2 UVB which had been pre-treated with 0 or 10 μM of RSKAKNPLYRRRRRRRRR 24 hours prior to being exposed to UVB radiation. The t-test (2-tailed) was used to determine statistical significance, *p<0.05, ***p<0.001.

For another experiment, the system named is human skin explants. Description: CPD formation in UV-irradiated human skin explants. The experiment is classed as cell-based. The method, then: Human skin removed at elective surgery was cleaned, dissected and cut into pieces of approx. 5 mm×5 mm. Each piece was placed in a well of a 96 well plate, with individual plates prepared to assess the effects 3 hrs post treatment. All samples were performed in triplicate for each treatment. Skin was subjected to UV-radiation from solar-simulated UV source for 1.5 h (UVR), or non-irradiation (SHAM). Given that human skin is thicker than mouse skin, human skin explants were exposed to a radiation dose three times higher than that used for mouse skin, i.e., 20 J/cm2 versus 7 J/cm^2, respectively, and the output spectrum of the laboratory solar simulator has previously been reported (Rybchyn M S et al, J Invest Dermatol. 2018 May; 138 (5): 1146-1156) and treated immediately after with a vehicle control, Calcitriol (1 nM) or the polypeptide IK34720 (SEQ ID NO: 3) at concentrations of 50 μM, 250 μM or 500 μM.
Samples harvested at 3 hrs were fixed, section, stained and quantified as described in Example 5.

Experiment [2] concerns the target T1, Human rheumatoid synovial fibroblast MMP-1 (Homo sapiens, UniProt P03956).
T1 construct: endogenous in cells; host or cells: human rheumatoid synovial fibroblasts
T1 sequence (P03956 100-469): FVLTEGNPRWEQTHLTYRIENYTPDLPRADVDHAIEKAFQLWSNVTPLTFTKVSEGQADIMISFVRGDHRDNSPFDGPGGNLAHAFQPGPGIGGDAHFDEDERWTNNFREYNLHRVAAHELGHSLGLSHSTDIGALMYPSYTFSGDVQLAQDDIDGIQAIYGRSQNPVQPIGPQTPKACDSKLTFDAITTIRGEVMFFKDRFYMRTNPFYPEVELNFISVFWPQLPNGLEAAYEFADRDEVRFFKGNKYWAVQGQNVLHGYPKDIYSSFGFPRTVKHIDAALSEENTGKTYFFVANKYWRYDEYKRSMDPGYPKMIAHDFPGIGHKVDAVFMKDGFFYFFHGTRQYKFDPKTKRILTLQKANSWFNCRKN
Description: MMP-1 activity, fluorogenic substrate assay. The settings on record: 5, 10, 800 and 1000 μM; 8 nM activated enzyme. In kind it is biochemical. Here is the method: Human rheumatoid synovial fibroblast MMP-1 proenzyme, activated with APMA for 60 minutes at 37° C., was used as an active enzyme. The polypeptide IK34720 (SEQ ID NO: 3) at a concentration of 5 μM. 10 μM 800 μM and 1000 μM was pre-incubated with 8 nM activated enzyme in modified MOPS buffer pH 7.2 for 60 minutes at 37° C. The reaction was initiated by addition of […] Mca-Pro-Leu-Gly-Leu-Dap-Ala-Arg followed by a 2 hour incubation period. Determination of the amount of Mca-Pro-Leu-Gly formed was read spectrofluorimetrically at 340 nm/400 nm.

The subject of another experiment is CREB-S133. The experiment in a line: CREB phosphorylation by western blot in keratinocytes after solar simulated UV. As to conditions: 0.1 μM, 1 μM and 5 μM added immediately following ssUV irradiation. In kind it is cell-based. Here is the method: The influence of the polypeptide IK34720 (SEQ ID NO: 3) on CREB phosphorylation was assessed using the following protocol.
Keratinocytes were harvested and cultured as previously described (Gupta et al., J Invest Dermatol, 2007, 127 (3): 707-215). Keratinocytes, (passages 1-5) from 3 independent donors were used in the experiments illustrated in FIG. 3.
Positive control treatment (denoted “D” in FIG. 3) was prepared by solubilizing Calcitriol (1,25-dihydroxyvitamin D3 (1,25 (OH)2D3)-Cayman Chemical, MI, USA) in 100% spectroscopic ethanol (Merck, Darmstadt, Germany) and the final concentration was determined by spectroscopy (NanoDrop 2000, Thermo Fisher Scientific, MA, USA). The polypeptide IK34720 (SEQ ID NO: 3) was solubilised in phosphate buffered saline (PBS) to a concentration of 1 mM at pH 7.2. A vehicle (denoted as “V” in FIG. 3) constituting 0.1% (v/v) spectroscopic ethanol and 0.1% (v/v) PBS was prepared for use as a negative control.
Cultured cells were irradiated by solar simulated UV-irradiation (ssUV) using an Oriel 1000W xenon-arc lamp (Stratford, CT, USA). Irradiation was administered at an energy level of 400 mJ/cm^2 for UVB and 3600 mJ/cm^2 for UVA (total 4000 mJ/cm^2), measured by an OL754 radiometer (Optronics Laboratories Inc., Orlando, FL). This dosage equates to approximately 4 min irradiation of the sun at 12 noon in October in Sydney, Australia. […]

Where no end group is shown, it is not given here.

“RSKAKNPLYRRRRRRRRR (not fully specified (some residues)) [IK34720]”: the melanin content result in experiment [1] is given as “significantly decreased melanin content”. The “percentage of CPD positive cells” value with human skin explants (500 μM, 3 hrs post irradiation, two individuals) is reported as “statistically significantly reduced”. Moreover, the “cells stained for CPDs” value with human skin explants (3 hrs post irradiation/treatment, Calcitriol 1 nM, IK34720 50, 250 or 500 μM) is recorded as “fewer stained cells”. In addition, the MMP-1 activity result in experiment [2] is “inhibits MMP-1 activation in a dose dependent manner”. In addition, the “UV-induced phosphorylation of serine at position 133 of CREB” value in the experiment with CREB-S133 is recorded as “inhibits UV-induced phosphorylation”.

(Values after US20250262139A1, “POLYPEPTIDES AND METHODS FOR IMPROVING SKIN CONDITIONS” (INTERK PEPTIDE THERAPEUTICS LIMITED, priority 2020, published 2025).)
